Data taken from patent publication US10258603B2 (priority 2014, dated 2019).
pIC50: −log10 of the molar value.

target: T1, CECR2 (Homo sapiens, UniProt Q9BXF3); test: CECR2 TR-FRET Binding Assay; conditions: IC50 (uM)
T1 construct: 424-538 was cloned, expressed, and purified to homogeneity; Flag; made in house
From the text: IC50 Measurements for Inhibitors Using CECR2 TR-FRET Binding Assay

T1 sequence (Q9BXF3 424-538 limits assumed): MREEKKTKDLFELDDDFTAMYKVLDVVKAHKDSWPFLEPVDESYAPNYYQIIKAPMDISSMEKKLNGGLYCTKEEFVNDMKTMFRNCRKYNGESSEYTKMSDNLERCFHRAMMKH

IC50	SMILES
0.21 µM	C=CCn1cc(C(=O)N(C)C2CCN(c3cc(C(F)(F)F)ncn3)CC2)c2cc[nH]c2c1=O [Example 164, 6-allyl-N-methyl-7-oxo-N-[1-[6-(trifluoromethyl)pyrimidin-4-yl]-4-piperidyl]-1H-pyrrolo[2,3-c]pyridine-4-carboxamide]

same assay, conditions: read-out: IC50

SMILES	pIC50
CN(CC1CCN(Cc2ccccc2F)CC1)C(=O)c1cn(C)c(=O)c2[nH]ccc12 [Example 201]	6.00
CN(CC1CCN(Cc2ccc(F)cc2)CC1)C(=O)c1cn(C)c(=O)c2[nH]ccc12 [Example 203]	5.96
Cc1cccc(NC(=O)c2cn(C)c(=O)c3[nH]ccc23)c1 [Example 80, 6-methyl-N-(m-tolyl)-7-oxo-1H-pyrrolo[2,3-c]pyridine-4-carboxamide]	6.29
COCCCN1CCC(CN(C)C(=O)c2cn(C)c(=O)c3[nH]ccc23)CC1 [Example 232]	5.92
Cc1ccc(CN2CCC(N(C)C(=O)c3cn(C)c(=O)c4[nH]ccc34)CC2)cc1 [Example 218]	6.11
C=CCn1cc(C(=O)N(C)C2CCN(c3cc(C4CC4)nc(C)n3)CC2)c2cc(C)[nH]c2c1=O [Example 266]	7.52
CN1CCC(C)(CNC(=O)c2cn(C)c(=O)c3[nH]ccc23)CC1 [Example 211, N-[(1,4-dimethyl-4-piperidyl)methyl]-6-methyl-7-oxo-1H-pyrrolo[2,3-c]pyridine-4-carboxamide]	5.66
C=CCn1cc(C(=O)N(C)C2CCN(c3cc(-c4ccco4)ncn3)CC2)c2cc(C)[nH]c2c1=O [Example 269]	7.48
C=CCn1cc(C(=O)N(C)C2CCCc3ccc(C)cc32)c2cc(C)[nH]c2c1=O (single isomer, unassigned) [Example 287]	7.08
C=CCn1cc(C(=O)N(C)C2CCN(c3cc(-c4ccccc4Cl)ncn3)CC2)c2cc(C)[nH]c2c1=O [Example 270]	7.74
COC1CCN(C(=O)c2cn(C)c(=O)c3[nH]ccc23)CC1 [Example 66, 4-(4-methoxypiperidine-1-carbonyl)-6-methyl-1H-pyrrolo[2,3-c]pyridin-7-one]	5.62
C=CCn1cc(C(=O)N(C)C2CCCc3ccncc32)c2cc(C)[nH]c2c1=O (single isomer, unassigned) [Example 290]	7.30
CC(CN(C)C)NC(=O)c1cn(C)c(=O)c2[nH]ccc12 (centres unmarked) [Example 2, N-[2-(dimethylamino)-1-methyl-ethyl]-6-methyl-7-oxo-1H-pyrrolo[2,3-c]pyridine-4-carboxamide]	4.85

Further lines, results first:

pIC50	SMILES
7.64	C=CCn1cc(C(=O)N(C)C2CCN(c3cc(-c4cccnc4C)ncn3)CC2)c2cc(C)[nH]c2c1=O [Example 268, 6-allyl-N,2-dimethyl-N-[1-[6-(2-methyl-3-pyridyl)pyrimidin-4-yl]-4-piperidyl]-7-oxo-1H-pyrrolo[2,3-c]pyridine-4-carboxamide]
7.96	C=CCn1cc(C(=O)N(C)C2CCN(c3cc(-c4ccccn4)ncn3)CC2)c2cc(C)[nH]c2c1=O [Example 271, 6-allyl-N,2-dimethyl-7-oxo-N-[1-[6-(2-pyridyl)pyrimidin-4-yl]-4-piperidyl]-1H-pyrrolo[2,3-c]pyridine-4-carboxamide]
5.64	CC(C)N1CC[C@@H](NC(=O)c2cn(C)c(=O)c3[nH]ccc23)[C@H](C)C1 (relative stereo) [Example 239]
5.32	C=CCn1cc(C(=O)N(C)[C@H]2[C@@H]3CN(c4ccnc(C#N)n4)C[C@@H]32)c2cc[nH]c2c1=O [Example 249, 6-allyl-N-[(1S,5R)-3-(2-cyanopyrimidin-4-yl)-3-azabicyclo[3.1.0]hexan-6-yl]-N-methyl-7-oxo-1H-pyrrolo[2,3-c]pyridine-4-carboxamide]
7.42	C=CCn1cc(C(=O)N(C)C2CCCc3ncccc32)c2cc(C)[nH]c2c1=O (centres unmarked) [Example 276]
6.19	CN(CC1CCN(CCC2CCCCC2)CC1)C(=O)c1cn(C)c(=O)c2[nH]ccc12 [Example 229]
